Results: patent publication US3956328A, “S-triazolo(1,5-a)pyridine derivative” (Kyorin Seiyaku Kabushiki Kaisha, priority 1973, dated 1976)
Several values for one entry are separate records, joined by “and”; a condition that tells them apart may be missing. Equal values may be shown once. Entries after “also recorded” stand apart in the source; their conditions may differ.

Legend:
[1] = tested on: guinea pig ileum; test: Schultz-Dale reaction in guinea pig ileum sensitized actively with egg albumin; settings: actively-sensitized guinea pig ileum
Protocol: Male guinea pigs are actively sensitized and their ileum preparations are treated by Schultz-Dales method (J. Pharmacol. Exp. Ther., 4, 167, 1913). […] These preceeding pharmacological properties of the present compound are due to triazolo [1,5-a]pyridine.

[2] = tested on: BSA induced asthma in guinea pigs; test: Inhibitory action on BSA-induced (experimentally allergic) asthma attack in passively sensitized guinea pigs; assay type: in vivo, guinea pig; set-up: key to z1 (statistical value vs non treatment): Mann-Whitney U z statistic, treated vs non-treated; settings: for p (statistical significance vs non treatment) / z1 (statistical value vs non treatment) / p (present compound vs homochlorcyclizine) / z2 (statistical value, present compound vs homochlorcyclizine): severity; for z1 (statistical value vs non treatment) / z2 (statistical value, present compound vs homochlorcyclizine): Mann and Whitney U test
Protocol: The present compound is studied on asthma attacks induced by the antigen-antibody reaction in guinea pigs. The guinea pigs are sensitized passively by the injection of 0.1 to 0.3 ml /100g body weight of rabbit antiserum to BSA (bovine serum albumin) into the ear vein. Forty six hours after passive sensitization, the guinea pigs are orally given the tested compounds. Two hours after oral administration, the asthma attack is provoked by an aerosol injection (0.1 ml/min.) of 1% BSA solution in physiological saline into the plastic chamber in which the testing guinea pig is placed. The symptoms of the asthma attack are observed for 10 minutes and scored on the following shock indices. The shock indices are examined by the shock grades, No. of collapsed guinea pigs/No. of used animals and survival rate.
The shock grades are as follows:
1 slight stimulation of expiration
2 stimulation of expiration (labored expiration)
3 attack of singultation
4 the strongest attack of collapse and struggle
but recovery from collapse within 5 minutes
5 recovery from collapse within 5 to 10 minutes
6 interruption of expiration to death within 10
*Statistical comparisons were carried out with the Mann and Whitneys' U
z1 : The statistical value between non treatment and each tested
z2 : The statistical value between the present compound and […]

[3] = tested on: ddN mice; test: Acute oral toxicity in mice; assay type: in vivo; settings: acute oral
Protocol: (§1) That of homochlorcyclyzine used as a standard drug is reported to be 353 mg/kg for mice.

[4] = Acute oral toxicity in mice; assay type: in vivo; settings: mouse, in vivo, po
Protocol: as §1

[5] = Acute oral toxicity in rats; settings: rat, in vivo
Protocol: as §1

[6] = tested on: anti acetylcholinergic action; test: Anti cholinergic action
[7] = tested on: heterologous PCA in guinea pigs; test: Heterologous passive cutaneous anaphylaxis (PCA) in guinea pigs; assay type: in vivo, guinea pig; settings: 25 mg/kg po, 30 min. before challenge; rabbit antiserum to egg albumin
Protocol: Male guinea pigs are passively sensitized by the intradermal injection of rabbit antiserum to egg albumin and challenged by the intravenous injection of egg albumin 4 hrs. after the sensitization. The test compounds are orally given 30 min. before the challenge.

[8] = tested on: guinea pig tracheal chain strips; test: Anti histaminic action: histamine-induced contraction of guinea pig tracheal chain strips; settings: 4×10^^-5 M; Tyrodes solution
[9] = tested on: homologous PCA in rats; test: Homologous PCA in SD rats; assay type: in vivo, rat (SD)
Source text: (§2) Male wistar or SD rats are passively sensitized by Motas method (Immunology 7, 681, 1964) and challenged by the intravenous injection of wistar or SD rat antiserum to egg albumin or horse serum. The inhibitory action of the present compound on homologous PCA (induced by reaginlike, mast cell sensitizing antibody) is shown in Table 5.

[10] = tested on: histamine-induced asthma attack; test: Inhibitory action on histamine-induced asthma attack in guinea pigs; assay type: in vivo, guinea pig; settings: for z1 (statistical value): Mann and Whitney U test
Protocol: Inhibitory actions on histamine-induced asthma attack: Male guinea pigs, of about 300 g body weight are used. Asthma attack is provoked by an aerosol of 0.2% histamine dihydrochloride solution in physiological saline for 10 minutes. The inhibitory actions are examined by shock grades, No. of collapsed guinea pigs/No. of provoked guinea pigs and survival rate. The tested compounds are orally given 2 hrs. prior to spraying of histamine solution.
A/B: No. of collapsed guinea pigs/ No. of provoked guinea pigs.
Statistical comparisons were carried out with the Mann and Whtineys' U

[11] = tested on: homologous PCA in rats; test: Homologous PCA in Wistar rats; assay type: in vivo, rat (Wistar); settings: for Inhibition % of extravasation of blue dye: Wistar, egg albumin, 30 min. before challenge, 72 hrs. after sensitization
Source text: as §2

[12] = antiserum 0.1 ml/100 g, 0.5 mg/kg p.o.
[13] = antiserum 0.1 ml/100 g, 1.0 mg/kg p.o.
[14] = antiserum 0.1 ml/100 g, 5.0 mg/kg p.o.
[15] = antiserum 0.2 ml/100 g, 5 mg/kg p.o.
[16] = antiserum 0.3 ml/100 g, 5 mg/kg p.o.
[17] = 2.50 mg/kg p.o. vs homochlorcyclizine (250 mg/kg (so in the source))

Structure (SMILES): c1ccc(C(c2ccccc2)N2CCN(CCCc3nc4ccccn4n3)CC2)cc1 [the present compound, 2-[3-(4-diphenylmethyl-1-piperazinyl)propyl] -s-triazolo[1,5-a]pyridine]
- inhibition of Schultz-Dale reaction [1]: markedly inhibits Schultz-Dale reaction
- severe asthma attack ([2]; 5 mg/kg dose): suppresses completely severe asthma attack
- A/B: No. of collapsed / No. of provoked guinea pigs [2, 12]: 3/6
- A/B: collapsed guinea pigs, percentage [2, 12]: 50%
- Survival rate (animals) [2, 12]: 5/6
- Survival rate, percentage [2, 12]: 83.3%
- A/B: No. of collapsed / No. of provoked guinea pigs [2, 13]: 4/10
- A/B: collapsed guinea pigs, percentage [2, 13]: 40%
- Survival rate (animals) [2, 13]: 10/10
- Survival rate, percentage [2, 13]: 100%
- A/B: No. of collapsed / No. of provoked guinea pigs [2, 14]: 0/6
- A/B: collapsed guinea pigs, percentage [2, 14]: 0%
- Survival rate (animals) [2, 14]: 6/6
- Survival rate, percentage [2, 14]: 100%
- A/B: No. of collapsed / No. of provoked guinea pigs [2, 15]: 0/6
- A/B: collapsed guinea pigs, percentage [2, 15]: 0%
- Survival rate (animals) [2, 15]: 6/6
- Survival rate, percentage [2, 15]: 100%
- A/B: No. of collapsed / No. of provoked guinea pigs [2, 16]: 0/5
- A/B: collapsed guinea pigs, percentage [2, 16]: 0%
- Survival rate (animals) [2, 16]: 5/5
- Survival rate, percentage [2, 16]: 100%
- incidences of asthma attack vs non treated ([2]; more than 0.5 mg/kg dose): inhibits significantly
- collapse ([2]; more than oral 5 mg/kg dose): completely inhibits collapse
- inhibitory action on asthma attack compared with homochlorcyclizine ([2]; oral): more significant; also recorded: prohibits the asthma attack more significantly than that of homochlorocyclizine
- shock death ([2]; oral 1 mg/kg): inhibits shock death
- p (statistical significance vs non treatment) [2, 12]: < 0.01
- z1 (statistical value vs non treatment) [2, 12]: 2.618
- p (statistical significance vs non treatment) [2, 13]: < 0.0001
- z1 (statistical value vs non treatment) [2, 13]: 4.032
- p (statistical significance vs non treatment) [2, 14]: < 0.001
- z1 (statistical value vs non treatment) [2, 14]: 3.686
- p (present compound vs homochlorcyclizine) [2, 15]: < 0.04
- p (statistical significance vs non treatment) [2, 15]: < 0.0001
- z1 (statistical value vs non treatment) [2, 15]: 4.112
- z2 (statistical value, present compound vs homochlorcyclizine) [2, 15]: 2.067
- p (present compound vs homochlorcyclizine) [2, 16]: < 0.05
- p (statistical significance vs non treatment) [2, 16]: < 0.001
- z1 (statistical value vs non treatment) [2, 16]: 3.26
- z2 (statistical value, present compound vs homochlorcyclizine) [2, 16]: 2.008
- toxicity compared with homochlorcyclizine [3]: lower toxicity than that of homochlorcyclizine
- LD50 ([4]; female ddN mice, confidence limit 418-563 mg/kg): 485 mg/kg
- LD50 ([4]; male ddN mice, confidence limit 507-768 mg/kg): 625 mg/kg
- LD50 ([5]; male wistar rats, confidence limit 1,05l-1, 790 mg/kg): 1370 mg/kg
- LD50 ([5]; po, female wistar rats): < 450 mg/kg
- anti acetylcholinergic action [6]: not found to have anti acetylcholinergic action
- Inhibition % of extravasation of blue dye [7]: 57.8%
- inhibitory rate on histamine-induced contraction [8]: 124%
- inhibition of reaginlike, mast cell sensitizing antibody-induced PCA ([9]; SD rat, oral): markedly inhibits
- Inhibition % of extravasation of blue dye ([9]; SD, horse serum, 100 mg/kg po, 3 hrs. before challenge, 48 hrs. after sensitization): 94.8% and 94%
- A/B: No. of collapsed / No. of provoked guinea pigs ([10]; 0.156 mg/kg p.o.): 10/10
- A/B: collapsed guinea pigs, number in parentheses (percentage) ([10]; 0.156 mg/kg p.o.): 100
- Survival rate (animals) ([10]; 0.156 mg/kg p.o.): 0/10
- Survival rate, number in parentheses (percentage) ([10]; 0.156 mg/kg p.o.): 0
- A/B: No. of collapsed / No. of provoked guinea pigs ([10]; 0.313 mg/kg p.o.): 10/10
- A/B: collapsed guinea pigs, number in parentheses (percentage) ([10]; 0.313 mg/kg p.o.): 100
- Survival rate (animals) ([10]; 0.313 mg/kg p.o.): 10/10
- Survival rate, number in parentheses (percentage) ([10]; 0.313 mg/kg p.o.): 100
- significance of difference from non treatment 1 ([10]; 0.313 mg/kg p.o.): markedly significant difference
- z1 (statistical value) ([10]; 0.313 mg/kg p.o. vs non treatment 1): > 5
- A/B: No. of collapsed / No. of provoked guinea pigs ([10]; 0.625 mg/kg p.o.): 9/10
- A/B: collapsed guinea pigs, number in parentheses (percentage) ([10]; 0.625 mg/kg p.o.): 90
- Survival rate, number in parentheses (percentage) ([10]; 0.625 mg/kg p.o.): 100
- significance of difference from non treatment 1 ([10]; 0.625 mg/kg p.o.): markedly significant difference
- z1 (statistical value) ([10]; 0.625 mg/kg p.o. vs non treatment 1): > 5
- A/B: No. of collapsed / No. of provoked guinea pigs ([10]; 1.25 mg/kg p.o.): 4/10
- A/B: collapsed guinea pigs, number in parentheses (percentage) ([10]; 1.25 mg/kg p.o.): 40
- Survival rate (animals) ([10]; 1.25 mg/kg p.o.): 10/10
- Survival rate, number in parentheses (percentage) ([10]; 1.25 mg/kg p.o.): 100
- significance of difference from non treatment 1 ([10]; 1.25 mg/kg p.o.): markedly significant difference
- z1 (statistical value) ([10]; 1.25 mg/kg p.o. vs non treatment 1): > 5
- A/B: No. of collapsed / No. of provoked guinea pigs ([10]; 2.50 mg/kg p.o.): 1/11
- A/B: collapsed guinea pigs, number in parentheses (percentage) ([10]; 2.50 mg/kg p.o.): 9.1
- Survival rate (animals) ([10]; 2.50 mg/kg p.o.): 11/11
- Survival rate, number in parentheses (percentage) ([10]; 2.50 mg/kg p.o.): 100
- significance of difference from non treatment 1 ([10]; 2.50 mg/kg p.o.): markedly significant difference
- p (significant difference from homochlorcyclizine) [10, 17]: < 0.02
- z2 (statistical value) [10, 17]: 2.332
- z1 (statistical value) ([10]; 2.50 mg/kg p.o. vs non treatment 1): > 5
- A/B: No. of collapsed / No. of provoked guinea pigs ([10]; 10.0 mg/kg p.o.): 0/6
- A/B: collapsed guinea pigs, number in parentheses (percentage) ([10]; 10.0 mg/kg p.o.): 0
- Survival rate (animals) ([10]; 10.0 mg/kg p.o.): 6/6
- Survival rate, number in parentheses (percentage) ([10]; 10.0 mg/kg p.o.): 100
- p (significant difference from non treatment 2) ([10]; 10.0 mg/kg p.o.): < 0.0005
- p for z2 (significant difference from non treatment 1 (so in the source)) ([10]; 10.0 mg/kg p.o.): < 0.005
- z2 (statistical value) ([10]; 10.0 mg/kg p.o. vs non treatment 1 (so in the source)): 2.844
- z1 (statistical value) ([10]; 10.0 mg/kg p.o. vs non treatment 2): 3.321
- inhibition of asthma attack compared to non treatment and homochlorcyclizine ([10]; oral, 2 hrs. prior to histamine): markedly and significantly inhibits asthma attack
- inhibition of reaginlike, mast cell sensitizing antibody-induced PCA ([11]; Wistar rat, oral): markedly inhibits
- Inhibition % of extravasation of blue dye ([11]; 25 mg/kg po): 64.3%
- Inhibition % of extravasation of blue dye ([11]; 50 mg/kg po): 88.8%
